Experimental data taken from patent publication US9963445B2, “Chemical compounds” (SYNGENTA PARTICIPATIONS AG, priority 2013, dated 2018).

Columns and labels:
Type in all cases: in vivo
Alopecurus myosuroides [1] = assay: Pre-emergence herbicidal activity, glasshouse pot test; settings: pre-emergence spray, rate 1000 g/ha, evaluated after 13 days, scale 0-5
Outline: (§1)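 Sown pots sprayed pre-emergence (day 1), acetone/water + 0.5% Tween 20 vehicle. Damage rated 0–5 at 13 days.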

Setaria faberi [2] = assay: as above; settings: pre-emergence spray, rate 1000 g/ha, evaluated after 13 days, scale 0-5
Outline: as §1

Echinochloa crus-galli [3] = assay: as above; settings: pre-emergence spray, rate 1000 g/ha, evaluated after 13 days, scale 0-5
Outline: as §1

Abutilon theophrasti [4] = assay: as above; settings: pre-emergence spray, rate 1000 g/ha, evaluated after 13 days, scale 0-5
Outline: as §1

zea mays [5] = assay: as above; settings: pre-emergence spray, rate 1000 g/ha, evaluated after 13 days, scale 0-5
Outline: as §1

Amaranthus retroflexus [6] = assay: as above; settings: pre-emergence spray, rate 1000 g/ha, evaluated after 13 days, scale 0-5
Outline: as §1

Alopecurus myosuroides [7] = assay: Post-emergence herbicidal activity, glasshouse pot test; design: key: 0 = no damage to plant, 5 = total damage to plant; settings: Application post-emergence, rate 1000 g/ha, evaluated after 13 days
Outline: (§2)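 Test solution: technical active ingredient in acetone/water (50:50) containing 0.5% Tween 20, applied as an aqueous spray to 8-day-old plants. Evaluation at 13 days, 0–5 damage scale.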

Setaria faberi [8] = assay: as above; design: key: 0 = no damage to plant, 5 = total damage to plant; settings: Application post-emergence, rate 1000 g/ha, evaluated after 13 days
Outline: as §2

Echinochloa crus-galli [9] = assay: as above; design: key: 0 = no damage to plant, 5 = total damage to plant; settings: Application post-emergence, rate 1000 g/ha, evaluated after 13 days
Outline: as §2

Abutilon theophrasti [10] = assay: as above; design: key: 0 = no damage to plant, 5 = total damage to plant; settings: Application post-emergence, rate 1000 g/ha, evaluated after 13 days
Outline: as §2

zea mays [11] = assay: as above; design: key: 0 = no damage to plant, 5 = total damage to plant; settings: Application post-emergence, rate 1000 g/ha, evaluated after 13 days
Outline: as §2

Amaranthus retroflexus [12] = assay: as above; design: key: 0 = no damage to plant, 5 = total damage to plant; settings: Application post-emergence, rate 1000 g/ha, evaluated after 13 days
Outline: as §2

Row | Compound | ALOMY damage score, application pre-emergence (Alopecurus myosuroides [1]) | SETFA damage score, application pre-emergence (Setaria faberi [2]) | ECHCG damage score, application pre-emergence (Echinochloa crus-galli [3]) | ABUTH damage score, application pre-emergence (Abutilon theophrasti [4]) | ZEAMX damage score, application pre-emergence (zea mays [5]) | AMARE damage score, application pre-emergence (Amaranthus retroflexus [6]) | ALOMY herbicidal damage score (Alopecurus myosuroides [7]) | SETFA herbicidal damage score (Setaria faberi [8]) | ECHCG herbicidal damage score (Echinochloa crus-galli [9]) | ABUTH herbicidal damage score (Abutilon theophrasti [10]) | ZEAMX herbicidal damage score (zea mays [11]) | AMARE herbicidal damage score (Amaranthus retroflexus [12])
1 | COC1=C(C)C(O)N(c2ccc(NC(=O)C(C)(C)C)cn2)C1=O (stereo not drawn) [AI26] | 4 | 5 | 5 | 5 | 2 | 5 | 5 | 5 | 5 | 5 | 5 | 5
2 | COC1=C(C)C(O)N(c2nccc(C(C)(C)C)n2)C1=O (stereo not drawn) [DI1] | 3 | 5 | 5 | 5 | 2 | 5 | 5 | 5 | 5 | 5 | 1 | 5
3 | CCc1cc(N2C(=O)C(Cl)=C(C)C2O)nnc1Cl (stereo not drawn) [BF13] | 2 | 5 | 4 | 2 | 1 | 4 | 4 | 5 | 5 | 3 | 1 | 3
4 | CC1=C(Cl)C(=O)N(c2cc(C(C)(F)F)ncn2)C1O (stereo not drawn) [CF15] | 3 | 5 | 5 | 5 | 2 | 5 | 4 | 5 | 5 | 5 | 4 | 5
5 | CC1=C(Cl)C(=O)N(c2cc(C#N)ccn2)C1O (stereo not drawn) [AF50] | 2 | 1 | 0 | 0 | 0 | 0 | 5 | 5 | 5 | 5 | 2 | 1
6 | CC1=C(Cl)C(=O)N(c2ccc(S(C)(=O)=O)cn2)C1O (stereo not drawn) [AF54] | 0 | 0 | 1 | 0 | 2 | 0 | 2 | 1 | 3 | 2 | 0 | 0
7 | CCC(CNC(=O)c1cnc(N2C(=O)C(OC)=C(C)C2O)cc1C)C(F)(F)F (stereo not drawn) [AI37] | 4 | 5 | 5 | 5 | 2 | 5 | 5 | 5 | 5 | 5 | 5 | 5
8 | CCOC(=O)c1cnc(N2C(=O)C(Cl)=C(C)C2O)cc1Cl (stereo not drawn) [AF101] | 0 | 0 | 0 | 1 | 0 | 2 | 2 | 5 | 3 | 5 | 1 | 5
9 | CC1=C(Cl)C(=O)N(c2ccc(C(C)(C)C#N)cn2)C1O (stereo not drawn) [AF102] | 3 | 4 | 5 | 5 | 3 | 5 | 5 | 5 | 5 | 5 | 5 | 5
10 | CC1=C(Cl)C(=O)N(c2ncc(F)cc2F)C1O (stereo not drawn) [AF62] | 0 | 0 | 0 | 2 | 0 | 2 | 1 | 1 | 1 | 2 | 0 | 0
11 | COC1=C(C)C(O)N(c2cc(C(F)(F)F)c(C(=O)N(C)OC)cn2)C1=O (stereo not drawn) [AI12] | 4 | 4 | 4 | 5 | 4 | 5 | 5 | 5 | 5 | 5 | 5 | 5
12 | COC1=C(C)C(O)N(c2cc(C)c(Cl)nn2)C1=O (stereo not drawn) [BI29] | 3 | 2 | 3 | 0 | 1 | 3 | 2 | 4 | 3 | 1 | 0 | 5
13 | C#CCNC(=O)c1cnc(N2C(=O)C(OC)=C(C)C2O)cc1C(F)(F)F (stereo not drawn) [AI10] | 4 | 5 | 5 | 5 | 4 | 5 | 5 | 5 | 5 | 4 | 5 | 5
